In patent publication US8338587B2, “Compounds” (AstraZeneca AB, priority 2009, dated 2012):
pIC50: −log10 of the molar value.

target: T1, recombinant human GR (Homo sapiens, UniProt P04150); test: Human Glucocorticoid Receptor (GR) Assay (fluorescence polarization competition, Panvera/Invitrogen kit); details: GS Red Fluoromone tracer, 2 hours at room temperature, 100% control 10 μM Dexamethasone, read-out: Inhibition of GR binding, IC50
T1 construct: purchased Panvera/Invitrogen P2812 (kit P2893)
T1 sequence (P04150 1-777): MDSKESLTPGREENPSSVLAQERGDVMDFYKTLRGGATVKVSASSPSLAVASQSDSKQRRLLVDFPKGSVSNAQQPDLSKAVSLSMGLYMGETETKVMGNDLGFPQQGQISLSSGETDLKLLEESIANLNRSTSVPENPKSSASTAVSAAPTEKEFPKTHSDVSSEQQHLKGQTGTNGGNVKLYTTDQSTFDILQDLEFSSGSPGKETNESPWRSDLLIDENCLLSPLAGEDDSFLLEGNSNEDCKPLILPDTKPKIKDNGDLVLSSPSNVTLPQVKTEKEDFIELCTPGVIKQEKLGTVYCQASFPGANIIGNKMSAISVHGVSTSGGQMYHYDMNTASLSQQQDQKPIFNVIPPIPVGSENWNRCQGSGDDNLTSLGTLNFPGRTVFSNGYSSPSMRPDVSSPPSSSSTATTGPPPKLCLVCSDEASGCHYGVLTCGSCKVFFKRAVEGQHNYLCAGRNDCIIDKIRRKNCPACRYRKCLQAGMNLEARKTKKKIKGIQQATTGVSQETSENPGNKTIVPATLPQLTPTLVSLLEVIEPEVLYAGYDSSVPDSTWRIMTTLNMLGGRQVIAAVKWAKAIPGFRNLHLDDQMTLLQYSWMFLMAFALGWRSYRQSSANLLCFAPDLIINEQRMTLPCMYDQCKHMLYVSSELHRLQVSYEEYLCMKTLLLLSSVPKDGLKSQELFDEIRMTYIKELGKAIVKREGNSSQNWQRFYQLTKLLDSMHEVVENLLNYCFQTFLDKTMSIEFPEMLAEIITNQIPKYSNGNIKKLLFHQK
Description: Human Glucocorticoid Receptor (GR) Assay The assay is based on a commercial kit from Panvera/Invitrogen (Part number P2893). The assay technology is fluorescence polarization. The kit utilises recombinant human GR (Panvera, Part number P2812), a Fluoromone™ labelled tracer (GS Red, Panvera, Part number P2894) and a Stabilizing Peptide 10× (Panvera, Part number P2815). The GR and Stabilizing Peptide reagents are stored at −70° C. while the GS Red is stored at −20° C. Also included in the kit are 1M DTT (Panvera, Part number P2325, stored at −20° C.) and GR Screening buffer 10× (Panvera, Part number P2814, stored at −70° C. initially but once thawed stored at room temperature). Avoid repeated freeze/thaws for all reagents. The GR Screening buffer 10× comprises 100 mM potassium phosphate, 200 mM sodium molybdate, 1 mM EDTA and 20% DMSO. Test compounds (1 μL) and controls (1 μL) in 100% DMSO were added to black is polystyrene 384-well plates (Greiner low volume black flat-bottom, part number 784076). 0% control was 100% DMSO and 100% control was 10 μM Dexamethasone. Background solution (8 μL; assay buffer 10×, Stabilizing Peptide, DTT and ice cold MQ water) was added to the background wells. GS Red solution (7 μL; assay buffer 10×, Stabilizing Peptide, DTT, GS Red and ice cold water) was added to all wells except background wells. GR solution (7 μL; assay buffer 10×, Stabilizing Peptide, DTT, GR and ice cold water) was added to all wells. The plate was sealed and incubated in a dark at room temperature for 2 hours. The plate was read in an Analyst plate reader (LJL Biosystems/Molecular Devices Corporation) or other similar plate reader capable of recording fluorescence polarization (excitation wavelength 530 nm, emission wavelength 590 nm and a dichroic mirror at 561 nm).

SMILES	pIC50
COCC(=O)O[C@]1(C(=O)SCC#N)CC[C@H]2[C@@H]3C[C@H](C)C4=Cc5c(cnn5-c5ccc(F)nc5)C[C@]4(C)[C@H]3[C@@H](O)C[C@@]21C [Example 24, (1R,3aS,3bS,5S,10aR,10bS,11S,12aS)-1-{[(Cyanomethyl)sulfanyl]carbonyl}-7-(6-fluoropyridin-3-yl)-11-hydroxy-5,10a,12a-trimethyl-1,2,3,3a,3b,4,5,7,10,10a,10b,11,12,12a-tetradecahydrocyclopenta[5,6]naphtho[1,2-f]indazol-1-yl methoxyacetate]	8.96
CCC(=O)O[C@]1(C(=O)SCF)[C@H](C)C[C@H]2[C@@H]3CCC4=Cc5c(cnn5-c5ccc(F)cc5)C[C@]4(C)[C@@]3(F)[C@@H](O)C[C@@]21C [Example 5, (1R,2R,3aS,3bS,10aS,10bR,11S,12aS)-10b-Fluoro-1-{[(fluoromethyl)sulfanyl]carbonyl}-7-(4-fluorophenyl)-11-hydroxy-2,10a,12a-trimethyl-1,2,3,3a,3b,4,5,7,10,10a,10b,11,12,12a-tetradecahydrocyclopenta[5,6]naphtho[1,2-f]indazol-1-yl propanoate]	7.96
C[C@]12Cc3cnn(-c4ccc(F)nc4)c3C=C1CC[C@H]1[C@@H]3CC[C@](OC(=O)[C@H]4CCCO4)(C(=O)SCF)[C@@]3(C)C[C@H](O)[C@@]12F [Example 13, (1R,3aS,3bS,10aS,10bR,11S,12aS)-10b-Fluoro-1-{[(fluoromethyl)sulfanyl]carbonyl}-7-(6-fluoropyridin-3-yl)-11-hydroxy-10a,12a-dimethyl-1,2,3,3a,3b,4,5,7,10,10a,10b,11,12,12a-tetradecahydrocyclopenta[5,6]naphtho[1,2-f]indazol-1-yl (2R)-tetrahydrofuran-2-carboxylate]	9.01
CCC(=O)O[C@]1(C(=O)SCC#N)[C@H](C)C[C@H]2[C@@H]3CCC4=Cc5c(cnn5-c5ccc(F)cc5)C[C@]4(C)[C@@]3(F)[C@@H](O)C[C@@]21C [Example 26, (1R,2R,3aS,3bS,10aS,10bR,11S,12aS)-10b-Fluoro-1-{[(cyanomethyl)sulfanyl]carbonyl}-7-(4-fluorophenyl)-11-hydroxy-2,10a,12a-trimethyl-1,2,3,3a,3b,4,5,7,10,10a,10b,11,12,12a-tetradecahydrocyclopenta[5,6]naphtho[1,2-f]indazol-1-yl propanoate]	7.77
C[C@]12Cc3cnn(-c4ccc(F)nc4)c3C=C1CC[C@H]1[C@@H]3CC[C@](OC(=O)[C@H]4CCCO4)(C(=O)SCCO)[C@@]3(C)C[C@H](O)[C@@]12F [Example 14, (1R,3aS,3bS,10aS,10bR,11S,12aS)-10b-Fluoro-7-(6-fluoropyridin-3-yl)-11-hydroxy-1-{[(2-hydroxyethyl)sulfanyl]carbonyl}-10a,12a-dimethyl-1,2,3,3a,3b,4,5,7, 10, 10a, 10,11,12,12a-tetradecahydrocyclopenta[5,6]naphtho[1,2-f]indazol-1-yl (2R)-tetrahydrofuran-2-carboxylate]	9.19
C[C@@H]1C[C@H]2[C@@H]3CCC4=Cc5c(cnn5-c5ccc(F)cc5)C[C@]4(C)[C@@]3(F)[C@@H](O)C[C@]2(C)[C@@]1(OC(=O)c1cocn1)C(=O)SCC#N [Example 29, (1R,2R,3aS,3bS,10aS,10bR,11S,12aS)-10b-Fluoro-1-{[(cyanomethyl)sulfanyl]carbonyl}-7-(4-fluorophenyl)-11-hydroxy-2,10a,12a-trimethyl-1,2,3,3a,3b,4,5,7,10,10a,10b,11,12,12a-tetradecahydrocyclopenta[5,6]naphtho[1,2-f]indazol-1-yl 1,3-oxazole-4-carboxylate]	8.26
COCC(=O)O[C@]1(C(=O)SCC#N)[C@H](C)C[C@H]2[C@@H]3CCC4=Cc5c(cnn5-c5ccc(F)nc5)C[C@]4(C)[C@@]3(F)[C@@H](O)C[C@@]21C [Example 30, (1R,2R,3aS,3bS,10aS,10bR,11S,12aS)-10b-Fluoro-1-{[(cyanomethyl)sulfanyl]carbonyl}-7-(6-fluoropyridin-3-yl)-11-hydroxy-2,10a,12a-trimethyl-1,2,3,3a,3b,4,5,7,10,10a,10b,11,12,12a-tetradecahydrocyclopenta[5,6]naphtho[1,2-f]indazol-1-yl methoxyacetate]	8.80
C[C@]12Cc3cnn(-c4ccc(F)nc4)c3C=C1CC[C@H]1[C@@H]3CC[C@](OC(=O)C4CCOC4)(C(=O)SCF)[C@@]3(C)C[C@H](O)[C@@]12F (single isomer, unassigned) [16 (R)/(S) isomer]	9.36
COCC(=O)O[C@]1(C(=O)SCF)[C@H](C)C[C@H]2[C@@H]3CCC4=Cc5c(cnn5-c5ccc(F)cc5)C[C@]4(C)[C@@]3(F)[C@@H](O)C[C@@]21C [Example 6, (1R,2R,3aS,3bS,10aS,10bR,11S,12aS)-10b-Fluoro-1-{[(fluoromethyl)sulfanyl]carbonyl}-7-(4-fluorophenyl)-11-hydroxy-2,10a,12a-trimethyl-1,2,3,3a,3b,4,5,7,10,10a,10b,11,12,12a-tetradecahydrocyclopenta[5,6]naphtho[1,2-f]indazol-1-yl methoxyacetate]	8.11

More lines, in order of rising pIC50, values ahead:

pIC50	SMILES
7.82	C[C@@H]1C[C@H]2[C@@H]3CCC4=Cc5c(cnn5-c5ccc(F)cc5)C[C@]4(C)[C@@]3(F)[C@@H](O)C[C@]2(C)[C@@]1(OC(=O)c1cocn1)C(=O)SCF [Example 28, (1R,2R,3aS,3bS,10aS,10bR,11S,12aS)-10b-Fluoro-1-{[(fluoromethyl)sulfanyl]carbonyl}-7-(4-fluorophenyl)-11-hydroxy-2,10a,12a-trimethyl-1,2,3,3a,3b,4,5,7,10,10a,10b,11,12,12a-tetradecahydrocyclopenta[5,6]naphtho[1,2-f]indazol-1-yl 1,3-oxazole-4-carboxylate]
8.72	CCC(=O)O[C@]1(C(=O)SCF)CC[C@H]2[C@@H]3C[C@H](C)C4=Cc5c(cnn5-c5ccc(F)nc5)C[C@]4(C)[C@H]3[C@@H](O)C[C@@]21C [Example 7, (1R,3aS,3bS,5S,10aR,10bS,11S,12aS)-1-{[(Fluoromethyl)sulfanyl]carbonyl}-7-(6-fluoropyridin-3-yl)-11-hydroxy-5,10a,12a-trimethyl-1,2,3,3a,3b,4,5,7,10,10a,10b,11,12,12a-tetradecahydrocyclopenta[5,6]naphtho[1,2-f]indazol-1-yl propanoate]
8.85	C[C@]12Cc3cnn(-c4ccc(F)nc4)c3C=C1CC[C@H]1[C@@H]3CC[C@](OC(=O)C4CC4)(C(=O)OCC#N)[C@@]3(C)C[C@H](O)[C@@]12F [Example 19, (1R,3aS,3bS,10aS,10bR,11S,12aS)-1-{[Cyanomethyloxy]carbonyl}-10b-fluoro-7-(6-fluoropyridin-3-yl)-11-hydroxy-10a,12a-dimethyl-1,2,3,3a,3b,4,5,7,10,10a,10b,11,12,12a-tetradecahydrocyclopenta[5,6]naphtho[1,2-f]indazol-1-yl cyclopropanecarboxylate]
9.00	C[C@]12Cc3cnn(-c4ccc(F)nc4)c3C=C1CC[C@H]1[C@@H]3CC[C@](OC(=O)[C@H]4CCCO4)(C(=O)SCC#N)[C@@]3(C)C[C@H](O)[C@@]12F [Example 12, (1R,3aS,3bS,10aS,10bR,11S,12aS)-1-{[(Cyanomethyl)sulfanyl]carbonyl}-10b-fluoro-7-(6-fluoropyridin-3-yl)-11-hydroxy-10a,12a-dimethyl-1,2,3,3a,3b,4,5,7,10, 10a,10b,11,12,12a-tetradecahydrocyclopenta[5,6]naphtho[1,2-f]indazol-1-yl (2R)-tetrahydrofuran-2-carboxylate]
